In paper PMC10778626, “Efficacy of Novel Quaternary Ammonium and Phosphonium Salts Differing in Cation Type and Alkyl Chain Length against Antibiotic-Resistant Staphylococcus aureus” (International Journal of Molecular Sciences, 2023):

Tests used:
[1] = Chromatographic hydrophobicity index (CHI) by UHPLC; format: physicochemical; conditions: for CHI: LC/UV at pH 2.6, calculated from retention time with the calibration line; for chromatographic logP: back-calculated from CHI at pH 2.6: CHI LogP = 0.047 × CHI + 0.36 × HBC − 1.10
Description: The chromatographic hydrophobicity index (CHI) values were determined using the retention times (tR) of the samples under study and of a mixture of standard compounds on a UHPLC NEXERA SERIES LC-40 with a Luna C18 (2) column of 150 × 4.6 mm, 5 μm (Phenomenex, Torrance, CA, USA). Stock solutions of the test compounds (10 mM) were prepared in dimethyl sulfoxide (DMSO, 99.9%; Carlo Erba) and diluted in acetonitrile/water (1:1) to obtain a final concentration of 500 μM. The mobile phase A was 1.0% (v/v) aqueous acetic acid solution (pH = 2.6), and the mobile phase B was acetonitrile. The following gradient programme was applied: 1–7 min 0–100% B, 7–17 min 100% B, 17–19 min 100–0% B, 1 mL/min flow; rt, injection volume 40 μL.
A calibration line was obtained using a mixture of the following compounds: benzimidazole, theophylline, paracetamol, caffeine, colchicine, carbamazepine, indole, propiophenone, butyrophenone, valerophenone, and heptanophenone (Table S1 and Figure S50, Supplementary Materials). The experimental CHI values of the compounds tested at pH 2.6 were then converted to the logarithm of octanol/water partition coefficient (CHI LogP) values using Equation (1). CHI LogP = 0.047 × CHI + 0.36 × HBC − 1.10 (1) where HBC is the hydrogen bond donor count.

S. aureus XU212 = experiment: MIC/MBC by broth microdilution, S. aureus XU212; format: cell-based; conditions: Staphylococcus aureus
Description: (§1) S. aureus CECT 976, obtained from the Spanish Type Culture Collection, was used as the standard susceptibility testing control strain. This strain has been previously employed in diverse studies to validate the antimicrobial effects of novel molecules. Additional antibiotic-resistant strains, S. aureus XU212, SA1199B, and RN4220, generously provided by S. Gibbons (University College London, London, UK) were tested. […] The SA1199B strain is characterized by its resistance to fluoroquinolones due to the overexpression of the NorA efflux pump and its ciprofloxacin resistance.
The minimum inhibitory concentration (MIC) and minimum bactericidal concentration (MBC) values of all QHSs were determined by the broth microdilution method, according to the approved M7-A7 (aerobes) standards of the Clinical and Laboratory Standards Institute (CLSI) guidelines. Overnight cell cultures of S. aureus, in the exponential phase of growth, were adjusted to an optical density (OD) of 0.132 ± 0.02 (λ = 600 nm). Then, a volume of 180 µL of the cell suspension was added to sterile, flat, clear-bottomed polystyrene (PS) 96-well microtiter plates (VWR—Radnor, PA, USA), already containing 20 µL of each QHS under study at concentrations ranging from 0.0625 to 64 µg/mL. In the end, the volume of each compound never exceeded 10% (v/v) of the well volume. Microtiter plates were then incubated for 24 h at 37 °C under agitation (150 rpm; INCU-Line IL 150R incubator). Absorbance measurements were performed at the beginning (t = 0 h) and end (t = 24 h) of the incubation period using a microtiter plate absorbance reader (BMG LABTECH FLUOstar Omega). Bacterial suspensions with DMSO and without QHSs were used as negative controls. […] All tests were performed with six replicates and a minimum of three independent repeats.
Plates were incubated at 37 °C for 24 h, and growth was visually inspected. The MBC was determined as the lowest concentration of compound in which the total inhibition of growth on solid medium was observed (no colony forming units (CFUs) were detected). All tests were performed in triplicate, and with a minimum of three independent repeats.

HepG2 cells = experiment: Cytotoxicity by neutral red (NR) uptake; format: cell-based, human; conditions: for NR uptake (lysosomal activity), % of control: HepG2, 24 h; for safety profile (MIC correlated with in vitro human cellular data): concentrations equal to or below 2 µg/mL
Description: The evaluation of the cytotoxicity effects of QHSs was performed using hepatocellular carcinoma (HepG2) cells. […] The cells used for all experiments were taken between the 9th and 13th passages, to avoid phenotypic changes.
The cytotoxicity profile of the compounds under study was evaluated in HepG2 cells (2.5 × 10^5 cells/mL) seeded in 96-well plates. […] Control experiments were performed for viability endpoints by adding the vehicle (medium with 0.1% DMSO) instead of the compound solution.
In the NR uptake assay, following a 24 h incubation period with the test compounds, the cell culture medium was aspirated, and fresh medium containing 150 µL of the dye (at a concentration of […]) was added to the cells. […] After incubation, the cell culture medium was discarded, and a mixture of absolute ethanol and distilled water (1:1) containing 5% acetic acid was added to extract the dye accumulated within the lysosomes of viable cells. The absorbance at 540 nm was measured using a microplate reader (Synergy HTX Multi-Mode Reader—BioTek, Winooski, VT, USA).
For all assays, results are expressed as a percentage of the control (nontreated cells), taken as 100%.

[2] = test system: S. aureus XU212, SA1199B, and RN4220; experiment: MIC/MBC by broth microdilution, ranges over the antibiotic-resistant strains; format: cell-based, Staphylococcus aureus
Description: as §1
The minimum inhibitory concentration (MIC) and minimum bactericidal concentration (MBC) values of all QHSs were determined by the broth microdilution method, according to the approved M7-A7 (aerobes) standards of the Clinical and Laboratory Standards Institute (CLSI) guidelines. […] Absorbance measurements were performed at the beginning (t = 0 h) and end (t = 24 h) of the incubation period using a microtiter plate absorbance reader (BMG LABTECH FLUOstar Omega). […]
Plates were incubated at 37 °C for 24 h, and growth was visually inspected. The MBC was determined as the lowest concentration of compound in which the total inhibition of growth on solid medium was observed (no colony forming units (CFUs) were detected). […]

Row | SMILES | CHI [1] | chromatographic logP [1] | MBC (S. aureus XU212) | MIC (S. aureus XU212) | NR uptake (lysosomal activity), % of control (HepG2 cells; 1 µg/mL) | NR uptake (lysosomal activity), % of control (HepG2 cells; 2 µg/mL) | NR uptake (lysosomal activity), % of control (HepG2 cells; 16 µg/mL) | NR uptake (lysosomal activity), % of control (HepG2 cells; 32 µg/mL) | MBC values, range over strains [2] | safety profile (MIC correlated with in vitro human cellular data) (HepG2 cells)
1 | CCCCCCCCCCCCCC[P+](c1ccccc1)(c1ccccc1)c1ccccc1 [Compound 1e, Triphenyl(tetradecyl)phosphonium bromide] | 105.0 | 3.84 | 2 µg/mL | 2 µg/mL | 53.86 ± 4.854% (****) | 72.84 ± 7.906% (****) | 12.29 ± 3.775% (****) | 13.78 ± 2.666% (****) | 2 µg/mL | –
2 | CCCCCCCCCCCCCC[n+]1ccn(C)c1.[Br-] [Compound 2e, 1-Methyl-3-tetradecyl-1H-imidazol-3-ium bromide] | 81.36 | 2.72 | 64 µg/mL | 32 µg/mL | – | 86.71 ± 4.103% (****) | 12.85 ± 2.005% (****) | 13.64 ± 2.776% (****) | – | favourable safety profile
3 | CCCCCCCCCCCCCC[n+]1ccc2ccccc2c1.[Br-] [Compound 3e, 2-Tetradecylisoquinolin-2-ium bromide] | 87.98 | 3.04 | 8 µg/mL | 4 µg/mL | – | 79.86 ± 9.893% (****) | 12.68 ± 2.385% (****) | 12.77 ± 1.368% (****) | – | –
4 | CCCCCCCCCCCCCC[n+]1ccc(C)cc1.[Br-] [Compound 4e, 4-Methyl-1-tetradecylpyridin-1-ium bromide] | 82.90 | 2.8 | 32 µg/mL | 32 µg/mL | – | – | 14.45 ± 2.437% (****) | 21.52 ± 19.06% (****) | – | favourable safety profile
5 | CCCCCCCCCCCCCC[n+]1cccc2ccccc21.[Br-] [Compound 5e, 1-Tetradecylquinolin-1-ium bromide] | 88.00 | 3.04 | 8 µg/mL | 8 µg/mL | – | 88.20 ± 3.101% (****) | 12.06 ± 2.988% (****) | 14.38 ± 4.045% (****) | 8 µg/mL | favourable safety profile
6 | CCCCCCCCCCCCCC[n+]1ccccc1.[Br-] [Compound 6e, 1-Tetradecylpyridin-1-ium bromide] | 79.90 | 2.65 | 64 µg/mL | 32 µg/mL | – | – | 10.46 ± 3.129% (****) | 12.93 ± 3.760% (****) | – | –
